Laboratory results published in ChEMBL document CHEMBL1833938 (Bioorg Med Chem Lett, 2011).
Values after ≈ are worked out from the molar mass of the structure shown.

Tests used:
Escherichia coli = test: microbe, parasite or virus in culture; conditions: ATCC 25922
physchem [1] = conditions: octanol/water, pH 6.5
physchem [2] = conditions: octanol/water, pH 5
physchem [3] = conditions: octanol/water, pH 7.4
Staphylococcus aureus = test: microbe, parasite or virus in culture; conditions: ATCC 29213
[4] = test system: Mycobacterium tuberculosis; test: microbe, parasite or virus in culture; conditions: H37Rv
Francisella tularensis = test: microbe, parasite or virus in culture; conditions: Schu S4
physchem [5] = conditions: octanol/water, pH 1.5

Compound	MIC (Escherichia coli)	logD (physchem [1])	logD (physchem [2])	logD (physchem [3])	MIC (Staphylococcus aureus)	MIC [4]	MIC (Francisella tularensis)	logD (physchem [5])
CO[C@@H]1[C@@H](OC(N)=O)[C@@H](O)[C@H](Oc2ccc3c(O)c(NC(=O)c4cc(CC=C(C)C)c(O)c(CN5CCN(c6ncccn6)CC5)c4)c(=O)oc3c2C)OC1(C)C	> 64 µg/mL	2.63	1.46	2.48	> 64 µg/mL	> 10 µg/mL	> 64 µg/mL	-0.46
CO[C@@H]1[C@@H](OC(N)=O)[C@@H](O)[C@H](Oc2ccc3c(O)c(NC(=O)c4cc(CC=C(C)C)c(O)c(CN5CCCC5)c4)c(=O)oc3c2C)OC1(C)C	> 64 µg/mL	1.34	0.38	1.39	> 64 µg/mL	10 µg/mL (≈ 14.4 µM)	> 64 µg/mL	0.11
CO[C@@H]1[C@@H](OC(N)=O)[C@@H](O)[C@H](Oc2ccc3c(O)c(NC(=O)c4cc(CC=C(C)C)c(O)c(CN5CCN(CCCN(C)C)CC5)c4)c(=O)oc3c2C)OC1(C)C	> 64 µg/mL	-1.32	-2.97	-0.59	> 64 µg/mL	> 10 µg/mL	> 64 µg/mL	-4
CO[C@@H]1[C@@H](OC(N)=O)[C@@H](O)[C@H](Oc2ccc3c(O)c(NC(=O)c4cc(CC=C(C)C)c(O)c(CN(C)C(=O)CCC(=O)O)c4)c(=O)oc3c2C)OC1(C)C	> 64 µg/mL	-0.61	0.93	-1.7	64 µg/mL (≈ 84.7 µM)	> 10 µg/mL	> 64 µg/mL	2.25
CO[C@@H]1[C@@H](OC(N)=O)[C@@H](O)[C@H](Oc2ccc3c(O)c(NC(=O)c4cc(CC=C(C)C)c(O)c(CN(C)C(=O)CNC(C)=O)c4)c(=O)oc3c2C)OC1(C)C	> 64 µg/mL	1.19	1.32	0.67	16 µg/mL (≈ 21.2 µM)	2.5 µg/mL (≈ 3.31 µM)	> 64 µg/mL	1.33
CO[C@@H]1[C@@H](OC(N)=O)[C@@H](O)[C@H](Oc2ccc3c(O)c(NC(=O)c4cc(CC=C(C)C)c(O)c(CN(C)C(=O)Cc5nnn[nH]5)c4)c(=O)oc3c2C)OC1(C)C	> 64 µg/mL	0.24	1.13	-0.35	> 64 µg/mL	> 10 µg/mL	> 64 µg/mL	1.9
CO[C@@H]1[C@@H](OC(N)=O)[C@@H](O)[C@H](Oc2ccc3c(O)c(NC(=O)c4cc(CC=C(C)C)c(O)c(CN(C)C(=O)C(C)(C)C)c4)c(=O)oc3c2C)OC1(C)C	> 64 µg/mL	4.1	4.23	3.58	16 µg/mL (≈ 21.6 µM)	> 10 µg/mL	64 µg/mL (≈ 86.5 µM)	4.23
CO[C@@H]1[C@@H](OC(N)=O)[C@@H](O)[C@H](Oc2ccc3c(O)c(NC(=O)c4cc(CC=C(C)C)c(O)c(CN(C)C(=O)[C@H](C)OC(C)=O)c4)c(=O)oc3c2C)OC1(C)C	> 64 µg/mL	2.49	2.62	1.97	16 µg/mL (≈ 20.8 µM)	2.5 µg/mL (≈ 3.25 µM)	> 64 µg/mL	2.62
CO[C@@H]1[C@@H](OC(N)=O)[C@@H](O)[C@H](Oc2ccc3c(O)c(NC(=O)c4cc(CC=C(C)C)c(O)c(CN(C)C(=O)CN(C)C)c4)c(=O)oc3c2C)OC1(C)C	> 64 µg/mL	1.15		1.32	> 64 µg/mL	> 10 µg/mL	> 64 µg/mL	-1.18
CCN(CC)Cc1cc(C(=O)Nc2c(O)c3ccc(O[C@@H]4OC(C)(C)[C@H](OC)[C@@H](OC(N)=O)[C@H]4O)c(C)c3oc2=O)cc(CC=C(C)C)c1O	> 64 µg/mL	1.7	0.81	1.53	> 64 µg/mL	> 10 µg/mL	> 64 µg/mL	0.42
CO[C@@H]1[C@@H](OC(N)=O)[C@@H](O)[C@H](Oc2ccc3c(O)c(NC(=O)c4cc(CC=C(C)C)c(O)c(CN(C)C(=O)CS(C)(=O)=O)c4)c(=O)oc3c2C)OC1(C)C	> 64 µg/mL	1.15	1.28	0.6	> 64 µg/mL	> 10 µg/mL	> 64 µg/mL	1.29
CO[C@@H]1[C@@H](OC(N)=O)[C@@H](O)[C@H](Oc2ccc3c(O)c(NC(=O)c4cc(CC=C(C)C)c(O)c(CN(C)C(=O)CCCS(N)(=O)=O)c4)c(=O)oc3c2C)OC1(C)C	> 64 µg/mL	1.14	1.27	0.62	16 µg/mL (≈ 19.9 µM)	10 µg/mL (≈ 12.4 µM)	> 64 µg/mL	1.27
CO[C@@H]1[C@@H](OC(N)=O)[C@@H](O)[C@H](Oc2ccc3c(O)c(NC(=O)c4cc(CC=C(C)C)c(O)c(CN(C)C(=O)c5ccccc5)c4)c(=O)oc3c2C)OC1(C)C	> 64 µg/mL	4.15	4.28	3.63	> 64 µg/mL	> 10 µg/mL	> 64 µg/mL	4.28
